Experimental data from patent US8415371B2, “Methods and kits for treating cluster headache disorders” (priority 2008, dated 2013).
“Also recorded” adds a separate entry of the source.

Tests used:
[1] = system: treatment-refractory cluster headache patients; assay: Compassionate use of bromolysergide in treatment-refractory cluster headache patients, daily headache diary (Example 3); format: in vivo, human; details: for continuous period of attack quiescence: indicates transition from chronic to episodic form
From the text: (§1) Patients referred to the Pain Clinic at the Hannover Medical School were identified with cluster headache if they met the respective diagnostic criteria of the international classification of headache disorders (Headache Classification Committee of the International Headache Society (2004) The International Classification of Headache Disorders, 2nd edn. Cephalalgia 24 Suppl 1:1-160). In addition, all patients were non-responders to verapamil and other prophylactic medications (i.e., refractory to the prophylactic medications listed in Table 1 for each patient). In accordance with German national and local ethics committee rules, all patients signed an informed consent, in which the patients declared their agreement to participate in this project on the compassionate use of bromolysergide for cluster headache. Patients kept a standardized daily diary of cluster headache symptoms starting at least two weeks prior to bromolysergide administration. Bromolysergide (hydrochloride salt) was manufactured by THCpharm GmbH (Frankfurt am Main, Germany). A purity of >99.2% was identified by HPLC and other analytical tests. Bromolysergide hydrochloride 30 μg per Kg body weight was dissolved into distilled water and then given once every 5 days for a total of 3 doses per os. Alterations in consciousness, thought disturbances, and vital signs (blood pressure, heart rate) were measured during a three to four hour observational period following administration. Patients were asked to continue completing daily headache diaries for the next months or until they experience 3 days of attacks of a starting new cluster series.

[2] = system: subjects diagnosed with chronic cluster headache disorder; assay: Treatment of chronic cluster headache disorder with bromolysergide, two adult subjects (Example 1); format: in vivo, human; details: once every five days
Method: The desired amount of bromolysergide (hydrochloride salt) was mixed with dextrose and placed into gelatin capsules for administration to subjects suffering from chronic cluster headache disorder.
Bromolysergide was administered to two adult subjects diagnosed with chronic cluster headache disorder during a cluster period. A dose of 2 mg of 2-bromolysergic acid dethylamide (30 μg/kg body weight) was administered orally to subject 1 three times, once every five days. A dose of 2.5 mg of 2-bromolysergic acid dethylamide (approximately 30 μg/kg body weight) was administered orally to subject 2 three times, once every five days.
Subjects were asked to rate their symptoms following administration of bromolysergide.

[3] = system: treatment-refractory cluster headache patients; assay: Side effects, consciousness, thought disturbances and vital signs observed three to four hours after bromolysergide administration (Example 3); format: in vivo, human
From the text: as §1

[4] = cited from earlier work
[5] = daily prophylactic administration over time; rare; cited from earlier work
[6] = subject 1, 2 mg (30 μg/kg) orally three times, for ten weeks
[7] = subject 2, 2.5 mg orally three times

With `CCN(CC)C(=O)[C@@H]1C=C2c3cccc4[nH]c(Br)c(c34)C[C@H]2N(C)C1` [bromolysergide, 2-bromolysergic acid diethylamide] the “overall effect on cluster headache cycle, frequency and intensity of attacks” value ([1]; five treatment-refractory patients, three single doses of 30 μg/kg within 10 days, FIG. 1) was “can either break a cluster headache cycle or considerably improve the frequency and intensity of attacks; also recorded: quite effective at breaking cluster headache cycle; also recorded: can break a cluster headache cycle, convert a chronic cluster headache disorder into an episodic cluster headache disorder, and extend the remission period”, the attack frequency ([1]; patient S1, chronic form, 30 μg/kg per os ×3) was “did not show this pronounced attack reduction” and the “decrease of attack intensity” value ([1]; patient S1, chronic form, 30 μg/kg per os ×3, within the first 4 months, continued to drink alcohol) was “about 30%”. For the same compound, the “outcome of cluster period” value ([1]; patient S2, episodic form, 30 μg/kg per os once every 5 days, 3 doses) was “termination of their cluster period”, the remission period ([1]; patient S2, episodic form, 30 μg/kg per os ×3, at last follow-up and continuing) was “six” and the attack frequency ([1]; patient S3, chronic form, 30 μg/kg per os ×3) was “pronounced reduction of attack frequency”. For the same compound, the “pain intensity during remaining occasional attacks” value ([1]; patient S3, 30 μg/kg per os ×3) was “such reductions of pain intensity during their remaining occasional attacks that they no longer administered an acute intervention”, the “continuous period of attack quiescence” value ([1]; patient S3, 30 μg/kg per os ×3) was “greater than 4 week” and the attack frequency ([1]; patient S4, chronic form, 30 μg/kg per os ×3) was “profound reduction of attack frequency”. For the same compound, the “continuous break of attacks” value ([1]; patient S4, 30 μg/kg per os ×3) was “did not show a continuous 4-week break of attacks”, the “pain intensity during remaining occasional attacks” value ([1]; patient S4, 30 μg/kg per os ×3) was “such reductions of pain intensity during their remaining occasional attacks that they no longer administered an acute intervention” and the attack frequency ([1]; patient S5, chronic form, 30 μg/kg per os ×3) was “pronounced reduction of attack frequency”. The “continuous period of attack quiescence” value ([1]; patient S5, 30 μg/kg per os ×3) was “greater than 4 week”, the “rating of results (Clinical Global Impressions Scale)” value ([2]; subject 1, chronic cluster headache, 2 mg (30 μg/kg) orally three times) was “minimally improved” and the “duration of improvement before reverting to pre-treatment form” value ([2]; subject 1, 2 mg (30 μg/kg) orally three times) was “ten”. The reduction in pain [2, 6] was 30%, the “reduction of attack frequency” value [2, 6] was 30% and the “rating of results (Clinical Global Impressions Scale)” value ([2]; subject 2, chronic cluster headache for more than 6 years, 2.5 mg (approximately 30 μg/kg) orally three times) was “marked/very much improved”. The “International Headache Society criteria for chronic cluster headache disorder after treatment” value [2, 7] was “no longer met criteria”, the remission of symptoms [2, 7] was “complete or nearly complete remission of symptoms” and the “time free of attacks” value ([2]; subject 2, 2.5 mg orally three times, at last follow-up) was “more than 3 months”. For the same compound, the “duration of side effect” value ([3]; each of the five subjects, 30 μg/kg per os) was “about 2 hours”, the “changes to heart rate and blood pressure” value ([3]; five patients, during bromolysergide treatment) was “No changes” and the “duration of mild subjective effects” value ([3]; five patients, 30 μg/kg per os) was “one to two”. For the same compound, the “hallucinogenic or psychotic effects” value ([3]; five patients, 30 μg/kg per os) was “No visual hallucinations or distortions occurred nor was there any evidence of delusional thinking or overt psychosis; also recorded: non-hallucinogenic”, the other side effects ([3]; five patients, apart from very mild alterations of subjective state and mild to no sympathetic reactions) was “no other side effects were observed” and the subjective feelings recorded ([3]; most of the patients, 30 μg/kg per os) was ““flabby” or “light drunk” feelings”. The subjective effects noted ([3]; patient S2, 30 μg/kg per os) was ““funny” feeling, tense muscles, and sweating of their hands”, the Vital signs ([3]; subject S1, 2.5 mg ×3) was “unchanged” and the Side effects ([3]; subject S1, 2.5 mg ×3, cell wraps into r25: “flabby feeling”) was ““flabby”. The Vital signs ([3]; subject S2, 2.0 mg ×3) was “unchanged”, the Side effects ([3]; subject S2, 2.0 mg ×3, cell wraps into r25: “funny feeling”) was ““funny” and the Side effects ([3]; subject S3, 3.1 mg ×3) was ““slightly”. For the same compound, the Vital signs ([3]; subject S3, 3.1 mg ×3) was “unchanged”, the Side effects ([3]; subject S4, 3.1 mg ×3) was ““slightly” and the Vital signs ([3]; subject S4, 3.1 mg ×3) was “unchanged”. The Side effects ([3]; subject S5, 2.2 mg ×3) was ““slightly” and the Vital signs ([3]; subject S5, 2.2 mg ×3) was “unchanged”.

For `CC[C@@H](CO)NC(=O)[C@@H]1C=C2c3cccc4c3c(cn4C)C[C@H]2N(C)C1` [methysergide], the “dose estimated to be equivalent to 25 micgrograms LSD” value ([4]; Abrahamson et al., J. Asthma Res. 3:81 (1965)) is listed as “ca. 4 mg”, the hallucinogenic effect ([4]; supra-therapeutic doses) is listed as “hallucinogenic” and the “serious medical complication in the longstanding user” value [5] is listed as “fibrotic reactions (retroperitoneal, pulmonary, pleural, and cardiac)”.
